One series has as its system P. aeruginosa. The experiment in a line: MIC, agar-dilution technique, standard in vitro test. Type of series: cell-based. The note with it: Pseudomonas aeruginosa; strain code A8101028; Isosensitest agar; inoculum 10^4 CFU./spot; read-out: minimum inhibitory concentration (MIC). An excerpt:
(§1) The results set out in the following Table are illustrative of the biological activity of the compounds of the present invention. The listed compounds all carry a 1-methyl-4-pyridinioaminomethyl radical at the 3-position of the cephalosporin nucleus and a variety of known substituents at the 7-position. The following results are those obtained on a standard in vitro test system and using Isosensitest agar medium. The antibacterial activity is described in terms of the minimum inhibitory concentration (MIC) determined by agar-dilution technique with an inoculum size of 10^4 CFU./spot.

The next series has as its system Prot. mirabilis. The description is as above. It counts as cell-based. The note with it: Proteus mirabilis; strain code A8432057; Isosensitest agar; inoculum 10^4 CFU./spot; read-out: minimum inhibitory concentration (MIC).
Source text: as §1

For the next series, the system named is Serr. marcescens. Described as above. Type of series: cell-based. The note with it: Serratia marcescens; strain code A8421020; Isosensitest agar; inoculum 10^4 CFU./spot; read-out: minimum inhibitory concentration (MIC).
Source text: as §1

Another series has as its system Ent. cloacae. The description is as above. It counts as cell-based. The note with it: Enterobacter cloacae; strain code A8401054; Isosensitest agar; inoculum 10^4 CFU./spot; read-out: minimum inhibitory concentration (MIC).
Source text: as §1

Another series relates to E. coli. Described as above. It counts as cell-based. The following applies: Escherichia coli; strain code A8341098; Isosensitest agar; inoculum 10^4 CFU./spot; read-out: minimum inhibitory concentration (MIC).
Source text: as §1

Another series relates to Strep. pyogenes. The series is described as above. Type of series: cell-based. The following applies: Streptococcus pyogenes; strain code A8681018; Isosensitest agar; inoculum 10^4 CFU./spot; read-out: minimum inhibitory concentration (MIC).
Source text: as §1

In the next series the test system is Staph. aureus. The description is as above. The following applies: Staphylococcus aureus; strain code A8601052; Isosensitest agar; inoculum 10^4 CFU./spot; read-out: minimum inhibitory concentration (MIC). It counts as cell-based.
Source text: as §1

A further series deals with Kleb. aerogenes. The series is described as above. The note with it: Klebsiella aerogenes; strain code A8391027; Isosensitest agar; inoculum 10^4 CFU./spot; read-out: minimum inhibitory concentration (MIC). Type of series: cell-based.
Source text: as §1

In the next series the test system is Sal. dublin. The description is as above. Type of series: cell-based. The following applies: Salmonella enterica; strain code A8369001; Isosensitest agar; inoculum 10^4 CFU./spot; read-out: minimum inhibitory concentration (MIC).
Source text: as §1

Series [1] can be described thus: Toxicity observation in mice after subcutaneous administration. It counts as in vivo. The following applies: two single doses over one day, each at least five times the PD50 against Salmonella dublin. The protocol: A number of compounds were administered to mice at doses in excess of those required to afford protection against bacterial infections. Thus for example the compounds of Examples 23, 70 and 74 were administered subcutaneously to mice in two single doses over one day, each dose being at least five times the minimum effective dose which protected 50% of the mice against infection with Salmonella dublin (PD50).

This note sets out measurements from patent publication US4678781A, “3-substituted-aminomethyl cephalosporin derivatives” (ICI Pharma, priority 1983, dated 1987).

In brackets after ≈: the same amount, converted by molar mass. A value given as a limit tells only on which side of the number the result lay.

With `CO/N=C(\C(=O)N[C@@H]1C(=O)N2C(C(=O)O)=C(CNc3cc[n+](C)cc3)CS[C@H]12)c1csc(N)n1` [Example 9], the MIC was 16 µg/mL in the series on P. aeruginosa; 0.064 µg/mL in the series with Prot. mirabilis; 0.13 µg/mL with Serr. marcescens; 0.064 µg/mL in the series with Ent. cloacae; 0.032 µg/mL in the series with E. coli; 0.016 µg/mL with Strep. pyogenes. The MIC with Staph. aureus worked out at 1 µg/mL; in the series with Kleb. aerogenes, 0.032 µg/mL; in the series on Sal. dublin, 0.25 µg/mL.
`C[n+]1ccc(NCC2=C(C(=O)[O-])N3C(=O)[C@@H](NC(=O)/C(=N\OC(C)(C)C(=O)O)c4csc(N)n4)[C@H]3SC2)cc1` [Example 23]: the MIC in the series with P. aeruginosa was found to be 2 µg/mL (≈ 3.47 µM); in the series on Prot. mirabilis, 0.064 µg/mL (≈ 0.111 µM); in the series with Serr. marcescens, 0.25 µg/mL (≈ 0.434 µM); with Ent. cloacae, 0.5 µg/mL (≈ 0.869 µM); with E. coli, 0.13 µg/mL (≈ 0.226 µM); with Strep. pyogenes it was 0.13 µg/mL (≈ 0.226 µM). Besides, the MIC is 8 µg/mL (≈ 13.9 µM) in the series on Staph. aureus, 0.13 µg/mL (≈ 0.226 µM) in the series on Kleb. aerogenes and 0.25 µg/mL (≈ 0.434 µM) in the series on Sal. dublin. Moreover, the “overt toxic symptoms or side effects” value in series [1] is on record as “No overt toxic symptoms or side effects attributable to the administered compounds were noted”.
Take `C=CCO/N=C(\C(=O)N[C@@H]1C(=O)N2C(C(=O)[O-])=C(CNc3cc[n+](C)cc3)CS[C@H]12)c1csc(N)n1` [Example 70]: the MIC with P. aeruginosa was 32 µg/mL (≈ 60.4 µM); in the series with Prot. mirabilis, 0.5 µg/mL (≈ 0.944 µM); in the series with Serr. marcescens, 0.5 µg/mL (≈ 0.944 µM); in the series with Ent. cloacae, 1 µg/mL (≈ 1.89 µM); in the series with E. coli it was 0.25 µg/mL (≈ 0.472 µM); with Strep. pyogenes, below 0.016 µg/mL. Further, the MIC turned out to be 1 µg/mL (≈ 1.89 µM) with Staph. aureus, 0.13 µg/mL (≈ 0.245 µM) with Kleb. aerogenes and 0.5 µg/mL (≈ 0.944 µM) with Sal. dublin. For the same molecule, the “overt toxic symptoms or side effects” value in series [1] is listed as “No overt toxic symptoms or side effects attributable to the administered compounds were noted”.
In the case of `C[n+]1ccc(NCC2=C(C(=O)[O-])N3C(=O)[C@@H](NC(=O)/C(=N\OC4(C(=O)O)CCC4)c4csc(N)n4)[C@H]3SC2)cc1` [Example 74], the MIC with P. aeruginosa was 4 µg/mL (≈ 6.81 µM); in the series on Prot. mirabilis it was 0.13 µg/mL (≈ 0.221 µM); in the series with Serr. marcescens, 1 µg/mL (≈ 1.7 µM); with Ent. cloacae it was 1 µg/mL (≈ 1.7 µM); with E. coli it was 0.25 µg/mL (≈ 0.425 µM); in the series with Strep. pyogenes, 0.25 µg/mL (≈ 0.425 µM). Further, the MIC in the series on Staph. aureus was found to be 8 µg/mL (≈ 13.6 µM); with Kleb. aerogenes it was 0.5 µg/mL (≈ 0.851 µM); with Sal. dublin it was 0.13 µg/mL (≈ 0.221 µM). For the same molecule, in series [1], the “overt toxic symptoms or side effects” value is “No overt toxic symptoms or side effects attributable to the administered compounds were noted”.
As to `CCN1CCN(C(=O)N[C@@H](C(=O)N[C@@H]2C(=O)N3C(C(=O)[O-])=C(CNc4cc[n+](C)cc4)CS[C@H]23)c2ccc(O)cc2)C(=O)C1=O` [Example 81], the MIC with P. aeruginosa was above 128 µg/mL; in the series with Prot. mirabilis, 32 µg/mL (≈ 50.2 µM); with Serr. marcescens, 8 µg/mL (≈ 12.5 µM); with Ent. cloacae, 4 µg/mL (≈ 6.27 µM); with E. coli, 2 µg/mL (≈ 3.14 µM); in the series on Strep. pyogenes, 0.13 µg/mL (≈ 0.204 µM). Besides, the MIC with Staph. aureus turned out to be 1 µg/mL (≈ 1.57 µM); with Kleb. aerogenes it was 2 µg/mL (≈ 3.14 µM); with Sal. dublin, 8 µg/mL (≈ 12.5 µM).
For the molecule `C[n+]1ccc(NCC2=C(C(=O)[O-])N3C(=O)[C@@H](NC(=O)[C@H](NC(=O)c4n[nH]c(=O)nc4O)c4ccc(O)cc4)[C@H]3SC2)cc1` [Example 82], the MIC is above 12 µg/mL with P. aeruginosa; 32 µg/mL (≈ 52.6 µM) with Prot. mirabilis; above 128 µg/mL in the series with Serr. marcescens; above 128 µg/mL with Ent. cloacae; 128 µg/mL (≈ 210 µM) with E. coli; 0.5 µg/mL (≈ 0.822 µM) in the series on Strep. pyogenes. The MIC is 2 µg/mL (≈ 3.29 µM) in the series with Staph. aureus, 64 µg/mL (≈ 105 µM) in the series on Kleb. aerogenes and 64 µg/mL (≈ 105 µM) with Sal. dublin.
`C[n+]1ccc(NCC2=C(C(=O)[O-])N3C(=O)[C@@H](NC(=O)/C(=N\OCC#N)c4csc(N)n4)[C@H]3SC2)cc1` [Example 96]: the MIC came to 32 µg/mL (≈ 60.5 µM) with P. aeruginosa; 0.064 µg/mL (≈ 0.121 µM) in the series with Prot. mirabilis; 0.032 µg/mL (≈ 0.0605 µM) in the series with Serr. marcescens; 0.25 µg/mL (≈ 0.473 µM) in the series with Ent. cloacae; 0.032 µg/mL (≈ 0.0605 µM) in the series with E. coli; 0.5 µg/mL (≈ 0.946 µM) with Staph. aureus. Further, the MIC was below 0.016 µg/mL in the series on Kleb. aerogenes and 0.064 µg/mL (≈ 0.121 µM) in the series with Sal. dublin.
